Measurements from patent US4933157A, “Radioiodinated arylaliphatic ether analogues of cholesterol” (The University of Michigan, priority 1988, dated 1990).
Where two headings read alike, the source gives them in different places.

How the values were obtained:
[1] = in vivo; cited from earlier work
[2] = Tissue distribution of radioactivity following IV administration of radioiodinated cholesteryl ethers to female rats; type: in vivo, female Sprague Dawley rats
Experimental: (§1) The labelled compounds ([…] ^125 I) were administered intravenously in a 2% Tween-20-saline vehicle. At various times following administration, the animals were sacrificed, and selected tissue samples were removed. The tissue samples were weighed and placed in cellulose acetate capsules. The radioactivity was then counted (85%) efficiency using a well scintillation counter (Searle 1185). The results from selected tissue samples are shown below in Tables 1 and 2. The tissue distribution of the selected cholesteryl ether is expressed as percent Kg dose per g of tissue after 30 minutes (Table 1) and after 24 hours (Table 2).

[3] = Tissue distribution of radioactivity following IV administration to male guinea pigs; type: in vivo, male Hartley guinea pigs
Experimental: as §1

[4] = Polyacrylamide gel electrophoresis of rat plasma (plasma level studies); type: in vivo, female Sprague Dawley rats
[5] = Experimental: Female Sprague Dawley rats were injected with a radio-iodinated arylaliphatic cholesteryl ether analogue (^125 I) solubilized in a suitable transport agent, such as 2% Tween 20-saline. After a predetermined time period, blood samples were drawn from the rats. The plasma was separated from the red blood cells and mixed with a suitable dye (Sudan Black or Sudan Blue). The plasma samples were then subjected to polyacrylamide gel electrophoresis to separate the various fractions. The radioactivity of the various fractions were measured with a gamma counter. […] The data is expressed as a percent of total radioactivity in the gel.
Guinea pigs have a greater concentration of low density lipoproteins in their blood plasma than rats.

Row | SMILES | Tissue distribution of radioactivity: Adrenal ([2]; 30 minutes) [% KG DOSE/G OF TISSUE] | Tissue distribution of radioactivity: Blood ([2]; 30 minutes) [% KG DOSE/G OF TISSUE] | Tissue distribution of radioactivity: Liver ([2]; 30 minutes) [% KG DOSE/G OF TISSUE] | Tissue distribution of radioactivity: Ovary ([2]; 30 minutes) [% KG DOSE/G OF TISSUE] | Tissue distribution of radioactivity: Thyroid ([2]; 30 minutes) [% KG DOSE/G OF TISSUE] | Tissue distribution of radioactivity: Adrenal ([2]; 24 hours) [% KG DOSE/G OF TISSUE] | Tissue distribution of radioactivity: Blood ([2]; 24 hours) [% KG DOSE/G OF TISSUE] | Tissue distribution of radioactivity: Liver ([2]; 24 hours) [% KG DOSE/G OF TISSUE] | Tissue distribution of radioactivity: Ovary ([2]; 24 hours) [% KG DOSE/G OF TISSUE] | Tissue distribution of radioactivity: Thyroid ([2]; 24 hours) [% KG DOSE/G OF TISSUE] | Gel fraction: Albumin ([4]; 30 minutes) | Gel fraction: Below Alb ([4]; 30 minutes) | Gel fraction: HDL Band (high density lipoproteins) ([4]; 30 minutes) | Gel fraction: LDL Band (low density lipoproteins) ([4]; 30 minutes) | Gel fraction: Stacking Gel ([4]; 30 minutes) | Gel fraction: Albumin ([4]; 24 hours) | Gel fraction: Below Alb ([4]; 24 hours) | Gel fraction: HDL Band ([4]; 24 hours) | Gel fraction: Stacking Gel ([4]; 24 hours) | other results
1 | CC(C)CCC[C@@H](C)[C@H]1CC[C@H]2[C@@H]3C[C@@H](C[131I])C4=C(CC[C@H](O)C4)[C@H]3CC[C@]12C [NP-59, 6-b-iodomethyl-19-norcholest-5[10]en-3b-ol] | – | – | – | – | – | – | – | – | – | – | – | – | – | – | – | – | – | – | – | metabolic loss of iodine and accumulation in the thyroid [1]: subject to metabolic loss of iodine and resulting accumulation of this iodine in the thyroid; uptake into the adrenal glands [1]: extremely slow
2 | CC(C)CCC[C@@H](C)[C@H]1CC[C@H]2[C@@H]3CC=C4C[C@@H](OCc5cccc([125I])c5)CC[C@]4(C)[C@H]3CC[C@]12C [m-Iodobenzyl, m-iodobenzyl cholesteryl ether] | 1.347 ± 0.289 | 0.985 ± 0.127 | 1.414 ± 0.176 | 0.635 ± 0.036 | 0.133 ± 0.018 | 3.755 ± 0.362 | 0.070 ± 0.006 | 2.607 ± 0.072 | 1.924 ± 0.301 | 1.307 ± 0.150 | 0.3 ± 0.1 % OF TOTAL RADIOACTIVITY IN GEL | 0.0 ± 0.0 % OF TOTAL RADIOACTIVITY IN GEL | 53.3 ± 2.2 % OF TOTAL RADIOACTIVITY IN GEL | 41.0 ± 3.5 % OF TOTAL RADIOACTIVITY IN GEL | 5.4 ± 2.5 % OF TOTAL RADIOACTIVITY IN GEL | 1.1 ± 0.2 % OF TOTAL RADIOACTIVITY IN GEL | 0.5 ± 0.1 % OF TOTAL RADIOACTIVITY IN GEL | 45.7 ± 3.2 % OF TOTAL RADIOACTIVITY IN GEL | 21.6 ± 5.8 % OF TOTAL RADIOACTIVITY IN GEL | Tissue distribution of radioactivity: Adrenal ([3]; 30 min): 0.360 ± 0.019 % KG DOSE/G OF TISSUE; Tissue distribution of radioactivity: Blood ([3]; 30 min): 0.799 ± 0.041 % KG DOSE/G OF TISSUE; Tissue distribution of radioactivity: Liver ([3]; 30 min): 0.643 ± 0.044 % KG DOSE/G OF TISSUE; Tissue distribution of radioactivity: Testes ([3]; 30 min): 0.025 ± 0.002 % KG DOSE/G OF TISSUE; Tissue distribution of radioactivity: Thyroid ([3]; 30 min): 0.039 ± 0.002 % KG DOSE/G OF TISSUE; Tissue distribution of radioactivity: Adrenal ([3]; 24 hr): 7.861 ± 0.656 % KG DOSE/G OF TISSUE; Tissue distribution of radioactivity: Blood ([3]; 24 hr): 0.158 ± 0.020 % KG DOSE/G OF TISSUE; Tissue distribution of radioactivity: Liver ([3]; 24 hr): 2.023 ± 0.147 % KG DOSE/G OF TISSUE; Tissue distribution of radioactivity: Testes ([3]; 24 hr): 0.043 ± 0.010 % KG DOSE/G OF TISSUE; Tissue distribution of radioactivity: Thyroid ([3]; 24 hr): 1.546 ± 0.279 % KG DOSE/G OF TISSUE; Gel fraction: LDL Band ([5]; guinea pig plasma, IV, 24 hr): 72.2 ± 2.0 % OF TOTAL RADIOACTIVITY IN GEL; dose associated with the low density lipoproteins ([5]; guinea pig, in vivo): greater than 70 % of the dose
3 | CC(C)CCC[C@@H](C)[C@H]1CC[C@H]2[C@@H]3CC=C4C[C@@H](OCCCCCCCCCCCCc5cccc([125I])c5)CC[C@]4(C)[C@H]3CC[C@]12C [m-Iodophenyldodecyl, 12-(m-iodophenyl)dodecyl cholesteryl ether] | 1.307 ± 0.177 | 1.250 ± 0.067 | 0.829 ± 0.121 | 0.936 ± 0.136 | 0.486 ± 0.085 | 3.063 ± 0.305 | 0.085 ± 0.002 | 1.779 ± 0.247 | 4.528 ± 0.816 | 6.047 ± 0.760 | 1.1 ± 0.2 % OF TOTAL RADIOACTIVITY IN GEL | 0.5 ± 0.1 % OF TOTAL RADIOACTIVITY IN GEL | 45.7 ± 3.2 % OF TOTAL RADIOACTIVITY IN GEL | 31.2 ± 4.0 % OF TOTAL RADIOACTIVITY IN GEL | 21.6 ± 5.8 % OF TOTAL RADIOACTIVITY IN GEL | 3.4 ± 0.7 % OF TOTAL RADIOACTIVITY IN GEL | 4.9 ± 1.3 % OF TOTAL RADIOACTIVITY IN GEL | 66.2 ± 2.6 % OF TOTAL RADIOACTIVITY IN GEL | 11.6 ± 1.3 % OF TOTAL RADIOACTIVITY IN GEL | Gel fraction: LDL Band ([4]; 24 hours): 14.0 ± 1.0 % OF TOTAL RADIOACTIVITY IN GEL
